We go through three compounds from patent US20040260084A1, “Novel c-3 s/o-and s/n formaldehe acetal derivatives of cephalosporins and their use as antibotics” (priority 2001, published 2004).

In data set [1] the test system is Staph. aureus DSM 1104. As to the kind of experiment: MIC, agar dilution (DIFCO Bacto Nutrient Agar). The data set is classed as cell-based. The protocol: (§1) The plates were then inoculated with a bacterial suspension obtained by diluting an overnight culture (37° C.) in DIFCO Bacto Nutrient Broth (pH 6.8) with sterile 1% NaCl (1:1000) using a 19 pin inoculator (Mast Diagnostics). MIC's […] were determined 18 h after incubation at 37° C.
(§2) Inoculum effect after inoculation with an non-diluted overnight culture (in comparison to Table 1). MIC's (μ/ml) were determined 18 h after incubation at 37° C.

The test system of data set [2] is Escherichia coli DSM 1103. Nature of the data set: MIC, agar dilution (DIFCO Bacto Nutrient Agar). The data set is classed as cell-based. The protocol:
as §1, §2

Data set [3] deals with Staph. aureus resistant. As to the kind of experiment: MIC, agar dilution (DIFCO Bacto Nutrient Agar). It counts as cell-based. The protocol:
as §1, §2

The test system of data set [4] is Staph. aureus 25768. Nature of the data set: MIC, agar dilution (DIFCO Bacto Nutrient Agar). The data set is classed as cell-based. The protocol:
as §1, §2

The test system of data set [5] is Escherichia coli TEM 1. As to the kind of experiment: MIC, agar dilution (DIFCO Bacto Nutrient Agar). The data set is classed as cell-based. The protocol:
as §1, §2

Data set [6] in a line: Blood serum stability, agar diffusion test with Escherichia coli TEM 1. The data set is classed as in vitro ADME. Particulars: sterile bovine serum (OXOID), 37° C. The protocol: The stability in blood serum was determined microbiologically using agar diffusion test with Escherichia coli TEM 1. The compounds I were incubated with sterile bovine serum (OXOID) at 37° C. At 0 h, 1 h, 2 h and 4 h intervals aliquot samples were spotted and remaining amounts of active antibiotic were calculated from the inhibition diameters (18-30 mm) in comparison with those (15-30 mm) obtained with 30 μg, 15 μg, 7.5μ and 3.75 μg of antibiotic.

The subject of data set [7] is E. coli 3981 TEM-1. As to the kind of experiment: In vivo activity, experimental systemic infection in mice. Particulars: Escherichia coli. The protocol: In vivo activity (ED50) was determined. Mice were infected intraperitoneally with ca. […] of E. coli 3981 TEM-1. Untreated animals died within 48 h after infection. Compounds were administered by oral or subcutaneous route a first time 10 min after infection and a second time 4 h later. The 50% effective dose (ED50) was calculated by the Spearman-Kärber method from the percentages of animals surviving to day 7 at each dose.

The nature of data set [8]: Chemical stability, half-life of hydrolysis by UV spectroscopy. It counts as physicochemical. The conditions noted are these: 37° C. The protocol: The half-lives (h) of hydrolysis was determined at 37° C. by UV spectroscopy in physiological phosphate buffer and in physiological NaCl solution containing 0.01 N HCl.
[9] abbreviates: Staph. aureus DSM 1104, inoculum ca. 10^4, 18 h at 37° C.
The mark [10] stands for this setting: Staph. aureus DSM 1104, inoculum ca. 10^7 (non-diluted overnight culture), 18 h at 37° C.
[11] abbreviates: Escherichia coli DSM 1103, inoculum ca. 10^4, 18 h at 37° C.
Setting [12] is: Escherichia coli DSM 1103, inoculum ca. 10^7 (non-diluted overnight culture), 18 h at 37° C.
Where [13] appears, read: inoculum ca. 10^4, 18 h at 37° C.
The mark [14] stands for this setting: inoculum ca. 10^7 (non-diluted overnight culture), 18 h at 37° C.
[15] abbreviates: Staph. aureus 25768, inoculum ca. 10^4, 18 h at 37° C.
The mark [16] stands for this setting: Staph. aureus 25768, inoculum ca. 10^7 (non-diluted overnight culture), 18 h at 37° C.
The mark [17] stands for this setting: Escherichia coli TEM 1, inoculum ca. 10^4, 18 h at 37° C.
Setting [18] is: Escherichia coli TEM 1, inoculum ca. 10^7 (non-diluted overnight culture), 18 h at 37° C.
[19] abbreviates: pH 2, physiological NaCl solution containing 0.01 N HCl.
Where [20] appears, read: pH 7.4, physiological phosphate buffer.

As for `COCSC1=C(C(=O)[O-])N2C(=O)[C@@H](NC(=O)/C(=N\OC)c3csc(N)n3)[C@H]2SC1.[K+]` [Cephalosporin 1a, potassium (6R,7R)-7-[(Z)-2-(2-amino-thiazol-4-yl)-2-methoximino-acetylamino]-3methoxymethylthio-8-oxo-5-thia-1-aza-bicyclo[4.2.0]oct-2-ene-2-carboxylate], the MIC in data set [1] (setting [9]) was determined as 0.5 pig/ml; in data set [1] (setting [10]), 0.5 μ/ml; in data set [2] (setting [11]), 1 pig/ml; in data set [2] (setting [12]), 1 μ/ml; in data set [3] (setting [13]), 2 pig/ml; in data set [3] (setting [14]) it was 4 μ/ml. The MIC in data set [4] (setting [15]) stood at 16 pig/ml; in data set [4] (setting [16]), 32 μ/ml; in data set [5] (setting [17]) it was 2 pig/ml; in data set [5] (setting [18]) it was 2 μ/ml. In addition, the half-life in data set [6] is 0.2 days; in data set [8] (setting [19]), 15.6 days; in data set [8] (setting [20]), 16.9 days. The 50% effective dose (ED50) turned out to be 8.35 mg/kg in data set [7] (3981TEM1, po) and 0.84 mg/kg in data set [7] (3981TEM1, sc).

For the compound `COCSC1=C(C(=O)[O-])N2C(=O)[C@@H](NC(=O)/C(=N\OCC(=O)[O-])c3csc(N)n3)[C@H]2SC1.[K+].[K+]` [Cephalosporin 1b, dipotassium (6R,7R)-7-[(Z)-2-(2-amino-thiazol-4-yl)-2-carboxy-methoximino-acetylamino]-3-methoxymethylthio-8-oxo-5-thia-1-aza-bicyclo[4.2.0]oct-2-ene-2-carboxylate], the MIC is recorded as 4 pig/ml in data set [1] (setting [9]); 4 μ/ml in data set [1] (setting [10]); 2 pig/ml in data set [2] (setting [11]); 2 μ/ml in data set [2] (setting [12]); 16 pig/ml in data set [3] (setting [13]); 32 μ/ml in data set [3] (setting [14]). Moreover, the MIC is more than 64 pig/ml in data set [4] (setting [15]), more than 64 μ/ml in data set [4] (setting [16]), 2 pig/ml in data set [5] (setting [17]) and 2 μ/ml in data set [5] (setting [18]). Besides, the half-life in data set [6] is 0.113 days; in data set [8] (setting [19]), 16.6 days; in data set [8] (setting [20]), 17.5 days.

On to `COCSC1=C(C(=O)O)N2C(=O)[C@@H](NC(=O)[C@H](N)c3ccccc3)[C@H]2SC1` [Cephalosporin 1c, (2′R,6R,7R)-7-(2′amino-2′-phenylacetamino)-3-methoxymethylthio-8-oxo-5-thia-1-aza-bicyclo[4.2.0]oct-2-ene-2-carboxylic acid], for which the MIC in data set [1] (setting [9]) is listed as 0.2 pig/ml; in data set [1] (setting [10]) it was 0.5 μ/ml; in data set [2] (setting [11]), 4 pig/ml; in data set [2] (setting [12]) it was 4 μ/ml; in data set [3] (setting [13]), 2 pig/ml; in data set [3] (setting [14]), 8 μ/ml. The MIC in data set [4] (setting [15]) is given as 8 pig/ml; in data set [4] (setting [16]), 32 μ/ml; in data set [5] (setting [17]), more than 64 pig/ml; in data set [5] (setting [18]), 32 μ/ml. Further, the half-life in data set [8] (setting [19]) was 7.12 days; in data set [8] (setting [20]), 7.54 days.
